Active and inactive are the calls of the source. No cut-off for these calls is given here.

Data set [1] concerns Rattus norvegicus. The experiment in a line: Diuretic activity in normotensive Wistar rat assessed as urine conductivity at 1 mg/kg, po administered via gavage after 8 hrs (reference value: 19.54 +/- 0.98 mS/cm). The data set is classed as functional.
In data set [2] the test system is Rattus norvegicus. The experiment in a line: Diuretic activity in normotensive Wistar rat assessed as urinary chloride excretion at 1 mg/kg, po administered via gavage after 8 hrs (reference value: 135.10 to 143.70 mmol/L). The data set is classed as functional.
Data set [3] deals with Rattus norvegicus. Briefly: Diuretic activity in normotensive Wistar rat assessed as urinary chloride excretion at 0.01 mg/kg, ip […] after 8 hrs (reference value: 103.30 +/- 10.25 mmol/L). Type of data set: functional.
Data set [4] concerns Rattus norvegicus. The experiment in a line: Diuretic activity in normotensive Wistar rat assessed as urine conductivity at 0.1 mg/kg, po administered via gavage after 8 hrs in presence of indomethacin (reference value: 19.54 +/- 0.98 mS/cm). The data set is classed as functional.
Data set [5] is described as follows: Toxicity in normotensive Wistar rat assessed as changes in plasma potassium level at 0.1 mg/kg, po administered for 7 days. Type of data set: organism-based. To be noted: in vivo, 168 h.
Data set [6] relates to Rattus norvegicus. The experiment in a line: In vivo antioxidant activity in Wistar rat model of hypertension-induced oxidative stress assessed as reduction in reactive oxygen species generation in renal tissue at 0.1 mg/kg, po administered via gavage for 7 days by DCFH-DA probe based fluorimetric assay. The data set is classed as functional, organism-based.
Data set [7] relates to Rattus norvegicus. The experiment in a line: In vivo antioxidant activity in Wistar rat model of hypertension-induced oxidative stress assessed as reduction in nitrite level in renal tissue at 0.1 mg/kg, po administered via gavage for 7 days by Griess reagent based assay. The data set is classed as functional, organism-based. (In general: The Griess reaction detects nitrite, a stable product of nitric oxide.)

The nature of data set [8]: Anti-urolithic activity in synthetic urine assessed as reduction in CaOx crystal formation at 0.1 mg/mL in presence of sodium oxalate after 60 mins by Neubauer counting chamber method relative to control. The data set is classed as functional. Set-up: scale not given: the % may be the effect or the level left.

As to `C[C@@H]1O[C@@H](Oc2c(-c3ccc(O)cc3)oc3cc(O)cc(O)c3c2=O)[C@H](O)[C@H](O)[C@H]1O` [AFZELIN], the Activity in the data set with Rattus norvegicus [1] was 17.48 mS/cm; with Rattus norvegicus [2] it was 165.2 mmol/L; in the data set on Rattus norvegicus [3], 96.18 mmol/L; in the data set on Rattus norvegicus [4], 19.34 mS/cm; in data set [5], “Non-Toxic”; in data set [8], 48.88%. Also, the result with Rattus norvegicus [6] and in the data set on Rattus norvegicus [7] was Active.

These data come from ChEMBL document CHEMBL4619763 (J Nat Prod, 2020).
